In US10806726B2, “Methods of using indazole-3-carb oxamides and their use as Wnt/B-catenin signaling pathway inhibitors” (Samumed, LLC, priority 2016, dated 2020):

Assays:
[1] = tested on: primary human mesenchymal stem cells (hMSCs); assay: Tenocyte differentiation screening in hMSCs (SCXA-positive cells, 4 days); type: cell-based; conditions: 96 h, fold change over DMSO
Outline: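 Primary hMSCs at passage 3–6 were treated with compound, fixed and immunostained for SCXA, and SCXA-positive cells per well were counted by imaging. Counts were normalized to DMSO wells as fold change, averaged over triplicates, and EC50 was fitted, with high-dose values manually corrected for solubility.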

[2] = tested on: Wnt-responsive promoter driving firefly luciferase in SW480 cells; assay: Wnt reporter (SP5 promoter-luciferase) screening assay in SW480 cells; type: cell-based; conditions: Homo sapiens, 24-40 h, top concentration ten micromolar
Outline: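 SW480 (APC-mutant colon) cells stably transduced with lentiviral SP5-promoter (eight TCF/LEF sites) firefly luciferase, ~10,000 cells/well. Signals normalized to DMSO controls for EC50 fitting.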

O=C(Nc1ccc(O)nc1)c1n[nH]c2ccc(-c3cncc(CN4CCCCC4)c3)cc12 [compound 178, N-(6-Hydroxypyridin-3-yl)-5-(5-(piperidin-1-ylmethyl)pyridin-3-yl)-1H-indazole-3-carboxamide]
EC50 [1]: > 100000 nM | EC50 [2]: 297 nM

O=C(Nc1ccc(C(=O)N2CCCC2)nc1)c1n[nH]c2ccc(-c3cncc(CN4CCCCC4)c3)cc12 [compound 179, 5-(5-(Piperidin-1-ylmethyl)pyridin-3-yl)-N-(6-(pyrrolidine-1-carbonyl)pyridin-3-yl)-1H-indazole-3-carboxamide]
EC50 [1]: 1120 nM | EC50 [2]: 30 nM

NC(=O)c1ccc(NC(=O)c2n[nH]c3ccc(-c4cncc(CN5CCCCC5)c4)cc23)cn1 [compound 180, N-(6-carbamoylpyridin-3-yl)-5-(5-(piperidin-1-ylmethyl)pyridin-3-yl)-1H-indazole-3-carboxamide]
EC50 [1]: > 100000 nM | EC50 [2]: 13 nM

O=C(NC1CCCC1)c1ccc(NC(=O)c2n[nH]c3ccc(-c4cccnc4)cc23)cn1 [compound 181, N-(6-(Cyclopentylcarbamoyl)pyridin-3-yl)-5-(pyridin-3-yl)-1H-indazole-3-carboxamide]
EC50 [1]: > 100000 nM | EC50 [2]: 38 nM

Nc1cncc(-c2ccc3[nH]nc(C(=O)Nc4ccc(N5CCCCC5)nc4)c3c2)c1 [compound 182, 5-(5-Aminopyridin-3-yl)-N-(6-(piperidin-1-yl)pyridin-3-yl)-1H-indazole-3-carboxamide]
EC50 [1]: 8040 nM | EC50 [2]: 35 nM

O=C(Nc1ccc(N2CCCC2)nc1)c1n[nH]c2ccc(-c3cncc(CN4CCC(F)(F)C4)c3)cc12 [compound 183, 5-(5-((3,3-Difluoropyrrolidin-1-yl)methyl)pyridin-3-yl)-N-(6-(pyrrolidin-1-yl)pyridin-3-yl)-1H-indazole-3-carboxamide]
EC50 [1]: > 100000 nM | EC50 [2]: 49 nM

O=C(NC1CCCC1)c1ccc(NC(=O)c2n[nH]c3ccc(-c4cncc(CN5CCCCC5)c4)cc23)cn1 [compound 184, N-(6-(Cyclopentylcarbamoyl)pyridin-3-yl)-5-(5-(piperidin-1-ylmethyl)pyridin-3-yl)-1H-indazole-3-carboxamide]
EC50 [1]: > 100000 nM | EC50 [2]: 40 nM

CS(=O)(=O)c1ccc(NC(=O)c2n[nH]c3ccc(-c4cncc(CN5CCCCC5)c4)cc23)cn1 [compound 185, N-(6-(Methylsulfonyl)pyridin-3-yl)-5-(5-(piperidin-1-ylmethyl)pyridin-3-yl)-1H-indazole-3-carboxamide]
EC50 [1]: 6440 nM | EC50 [2]: 27 nM

CN1CCN(c2cncc(-c3ccc4[nH]nc(C(=O)Nc5ccc(N6CCCC6)nc5)c4c3)c2)CC1 [compound 186, 5-(5-(4-Methylpiperazin-1-yl)pyridin-3-yl)-N-(6-(pyrrolidin-1-yl)pyridin-3-yl)-1H-indazole-3-carboxamide]
EC50 [1]: > 100000 nM | EC50 [2]: 460 nM

O=C(Nc1ccc(N2CCCC2)nc1)c1n[nH]c2ccc(-c3cncc(N4CCOCC4)c3)cc12 [compound 187, 5-(5-Morpholinopyridin-3-yl)-N-(6-(pyrrolidin-1-yl)pyridin-3-yl)-1H-indazole-3-carboxamide]
EC50 [1]: > 100000 nM | EC50 [2]: 215 nM

O=C(Nc1cccnc1)c1n[nH]c2ccc(-c3cncc(CN4CCC(F)(F)C4)c3)cc12 [compound 188, 5-(5-((3,3-Difluoropyrrolidin-1-yl)methyl)pyridin-3-yl)-N-(pyridin-3-yl)-1H-indazole-3-carboxamide]
EC50 [1]: 1210 nM | EC50 [2]: 9 nM

O=C(Nc1cccnc1)c1n[nH]c2ccc(-c3cncc(N4CCCC4)c3)cc12 [compound 189, N-(Pyridin-3-yl)-5-(5-(pyrrolidin-1-yl)pyridin-3-yl)-1H-indazole-3-carboxamide]
EC50 [1]: > 100000 nM | EC50 [2]: 85 nM

CN(C)Cc1cncc(-c2ccc3[nH]nc(C(=O)Nc4ccc(N5CCCC5)nc4)c3c2)c1 [compound 190, 5-(5-((Dimethylamino)methyl)pyridin-3-yl)-N-(6-(pyrrolidin-1-yl)pyridin-3-yl)-1H-indazole-3-carboxamide]
EC50 [1]: > 100000 nM | EC50 [2]: 1200 nM
